In patent US10370644B2, “Method for making human pluripotent suspension cultures and cells derived therefrom” (Janssen Biotech, Inc., priority 2012, dated 2019):

What was measured:
Format in all cases: cell-based
[1] = system: Clusters from pluripotent human embryonic stem cell line H1 (NIH code: WA01); assay: EdU incorporation and cell cycle stage (G0/G1, S, G2/M) by flow cytometry during definitive endoderm differentiation; details: for cells in G0/G1 of the cell cycle: 48 hours after initiation of differentiation; for percentage of cells with EdU incorporation (mean of GDF8, WNT-3A, WNT-3A+Activin A and neat medium) / average decrease in the number of cells in G0/G1 (GDF8, WNT-3A, WNT-3A+Activin A and neat medium): six hours after the initiation of differentiation; for percentage of cells with EdU incorporation (mean of GDF8, WNT-3A, WNT-3A+Activin A and neat medium): SD ±1.2; for average decrease in the number of cells in G0/G1 (GDF8, WNT-3A, WNT-3A+Activin A and neat medium): Standard Deviation ±5%
Method: (§1) Clusters from pluripotent human embryonic stem cell line H1 (NIH code: WA01) were seeded at 0.5×10^6 cells/ml in Erlenmeyer shaker flasks in MCDB-131 medium containing […] sodium bicarbonate and 5.5 mM glucose (Catalog #A13051 DJ, Invitrogen, CA), which was supplemented with 2% fatty acid free BSA (Catalog #68700, Proliant, Iowa), 1× GlutaMAX™ (Catalog #35050-079, Invitrogen, CA), an additional 2.5 mM glucose (Catalog #G8769, Sigma) and ITS-X at 1:50,000 stock concentration (Catalog #51500056, Invitrogen, CA). MCDB-131 medium supplemented in this manner will be referred to as stage 1 basal medium or “Neat” medium for the purposes of this example. The GSK3B inhibitor, 14-Prop-2-en-1-yl-3,5,7,14,17,23,27-heptaazatetracyclo[19.3.1.1-2,6˜.1˜8,12˜]heptacosa-1(25),2(27),3,5,8(26),9,11,21,23-nonaen-16-one, U.S. patent application Ser. No. 12/494,789; incorporated herein by reference in its entirety will be referred to as “MCX”.
(§2) Clusters were treated on the first day of differentiation with one of six conditions: (1) Neat, (2) 3 μM MCX plus 100 ng/ml GDF-8 (Catalog #120-00, Peprotech), (3) 3 μM MCX only, (4) 100 ng/ml GDF-8 only, (5) 20 ng/ml WNT-3A (Catalog #1324-WN-002, R&D Systems, MN) plus 100 ng/ml Activin A (Catalog #338-AC, R&D Systems, MN), or (6) 20 ng/ml WNT-3A only.
(§3) Media in each of the conditions was changed at 24 and 48 hours after the initiation of differentiation. At these times, cells in conditions 1, 2, 3, and 4 were changed to fresh stage 1 basal media supplemented with 100 ng/ml GDF8 while cells in conditions 5 and 6 were changed to fresh stage 1 basal media supplemented with 100 ng/ml Activin A.
One hour prior to initiation of differentiation, and 5, 23, 29, 47, or 71 hours after the initiation of differentiation (referred to as “Time 0”), suspension samples were transferred to a non-tissue culture treated six well dish and incubated with EdU (Click-iT® EdU Kit, Life Technologies Corporation, Carlsbad, Calif.) for one hour. The EdU incubated cells were then assessed by flow cytometry at times 0, 6, 24, 30, 48, or 72 hours after initiation of differentiation to measure the percentage of cells in G0/G1, S, or G2/M stages of the cell cycle (FIGS. 81-87).

[2] = system: Clusters from pluripotent human embryonic stem cell line H1 (NIH code: WA01); assay: Efficiency of definitive endoderm generation: percentage of cells expressing CXCR4 (CD184), CD99 and CD9 by flow cytometry after 3 days of differentiation in suspension culture; details: for CD9 (% by FACS) / CD184 (% by FACS) / CD99 (% by FACS): end of day three
Method: Clusters from pluripotent human embryonic stem cell line H1 (NIH code: […] MCDB-131 medium supplemented in this manner will be referred to as “stage 1 basal medium” for the purposes of this application. […] No. 12/494,789; incorporated herein by reference in its entirety) and 100 ng/ml GDF-8 (Catalog #120-00, Peprotech), or 3 μM MCX only, or 20 ng/ml WNT-3A (Catalog #1324-WN-002, R&D Systems, MN) plus 100 ng/ml Activin A (Catalog #338-AC, R&D Systems, MN) or 20 ng/ml WNT-3A only. On day two, cells were transferred to fresh stage 1 basal media supplemented with either 100 ng/ml GDF8 or 100 ng/ml Activin A. Samples were collected for flow cytometry, PCR and Western Blot analysis at various time points ranging from time zero (immediately before addition of basal media plus supplements) up to 72 hours after beginning differentiation. The efficiency with which definitive endoderm was generated was determined after 3 days of differentiation under each condition by measuring the percentage of cells expressing the cells surface markers CXCR4, CD99 and CD9 using flow cytometry. […] Clusters from pluripotent human embryonic stem cell line H1 (NIH code: WA01) were seeded at cell densities ranging from 0.25×10^6 to 2×10^6 cells/ml in Erlenmeyer/shaker flasks or spinner flasks in stage 1 basal media as described in Example 9. Clusters were treated with stage 1 basal medium containing 1.5, 2, 3, or 4 μM MCX on day one of differentiation and with fresh stage 1 basal medium containing 100 ng/ml GDF-8 on day 2. No media exchange was performed on day three. Samples were collected for flow cytometry and PCR analysis at the end of day three of differentiation. The efficiency with which definitive endoderm was generated was then determined by measuring the percentage of cells expressing the cells surface markers CXCR4, CD99 and CD9 using flow cytometry. […] However, by increasing BSA concentrations, the effects of MCX can be modulated such that concentrations≥4 micromolar may be used. Conversely, concentrations≤1.5 micromolar may be used to generate definitive endoderm when used with lower BSA concentrations. The example was carried out to determine whether GlutaMAX™ supplementation was required for generation of definitive endoderm by suspending clusters in stage 1 basal media (described in Example 9) plus or minus GlutaMAX™, which was supplemented with 3 μM MCX on day one of differentiation and with fresh stage 1 basal medium containing 100 ng/ml GDF-8 on day 2. No media exchange was performed on day three. Samples were collected for flow cytometry and PCR analysis at the end of day three of differentiation. The efficiency with which definitive endoderm was generated was determined under each condition by measuring the percentage of cells expressing the cells surface markers CXCR4, CD99 and CD9 using flow cytometry. Clusters from pluripotent human embryonic stem cell line H1 (NIH code: […] Clusters were treated with stage 1 basal medium containing MCX and GDF-8 as described in Example 12. Samples were collected for flow cytometry at the end of day three of differentiation. Phase contrast images were also captured on each day of differentiation. The efficiency with which definitive endoderm was generated was then determined by measuring the percentage of cells expressing the cells surface markers CXCR4, CD99 and CD9 using flow cytometry. The data is shown in FACS plots in FIGS. 44 A&B and summarized in Table 17. […] In addition, it was observed that differences in bicarbonate levels correlated with differences in cluster morphologies at the end of stage 1, as observed by phase contrast microscopy (FIGS. 44 C&D). Also, cells differentiated under high bicarbonate levels were noted to form looser clusters than cells differentiated in 2.43 g/L of bicarbonate.

[3] = system: Clusters from pluripotent human embryonic stem cell line H1 (NIH code: WA01); assay: Cell viability of clusters treated with MCX in suspension culture; details: MCX at concentrations above 4 μM
Method: Clusters from pluripotent human embryonic stem cell line H1 (NIH code: WA01) were seeded at cell densities ranging from 0.25×10^6 to 2×10^6 cells/ml in Erlenmeyer/shaker flasks or spinner flasks in stage 1 basal media as described in Example 9. Clusters were treated with stage 1 basal medium containing 1.5, 2, 3, or 4 μM MCX on day one of differentiation and with fresh stage 1 basal medium containing 100 ng/ml GDF-8 on day 2. No media exchange was performed on day three. Samples were collected for flow cytometry and PCR analysis at the end of day three of differentiation.
The efficiency with which definitive endoderm was generated was then determined by measuring the percentage of cells expressing the cells surface markers CXCR4, CD99 and CD9 using flow cytometry. […] However, by increasing BSA concentrations, the effects of MCX can be modulated such that concentrations≥4 micromolar may be used. Conversely, concentrations≤1.5 micromolar may be used to generate definitive endoderm when used with lower BSA concentrations.

[4] = system: Clusters from pluripotent human embryonic stem cell line H1 (NIH code: WA01); assay: qRT-PCR gene expression, fold versus undifferentiated cells, 0-72 hours of differentiation (Example 15)
Method: as §1, §2, §3
However, consistent with the differences in cell cycle observed through the process of forming definitive endoderm, intermediate differences in gene expression were seen. […] (FIGS. 88c and e).

[5] = 1.5 μM MCX on day one, 100 ng/ml GDF-8 on day 2
[6] = 2 μM MCX on day one, 100 ng/ml GDF-8 on day 2
[7] = 3 μM MCX on day one, 100 ng/ml GDF-8 on day 2
[8] = 4 μM MCX on day one, 100 ng/ml GDF-8 on day 2
[9] = 6 hours following initiation of differentiation
[10] = 2.43 g/L Sodium bicarbonate in modified stage 1 basal media, MCX and GDF-8
[11] = 3.64 g/L Sodium bicarbonate in stage 1 basal media, MCX and GDF-8

## GDF8: TGF-β family member, GDF8 (Catalog #120-00, Peprotech)
[1]
  cells in G0/G1 of the cell cycle: 48.5%
  percentage of cells with EdU incorporation (mean of GDF8, WNT-3A, WNT-3A+Activin A and neat medium): 48.1%
  average decrease in the number of cells in G0/G1 (GDF8, WNT-3A, WNT-3A+Activin A and neat medium): 13%

## C=CCN1CC(=O)NCCCc2cncc(c2)-c2ncnc(n2)Nc2cccc(c2)C1 [MCX, 14-Prop-2-en-1-yl-3,5,7,14,17,23,27-heptaazatetracyclo[19.3.1.1˜2,6-˜0.1˜8,12.˜]heptacosa-1(25),2(27),3,5,8(26),9,11,21,23-non-aen-16-one]
[2]; [5]
  CD9 (% by FACS): 68.4%
  CD184 (% by FACS): 67.8%
[2]; [6]
  CD9 (% by FACS): 0.2%
  CD184 (% by FACS): 96.5%
[2]; 3 μM MCX in the absence of a TGF-β family member on day one
  definitive endoderm level versus 3 μM MCX plus 100 ng/ml GDF-8 or 20 ng/ml WNT-3A plus 100 ng/ml Activin A on day one: comparable
[2]; [7]
  CD9 (% by FACS): 0.2%
  CD184 (% by FACS): 96.0%
[2]; [8]
  CD9 (% by FACS): 1.0%
  CD184 (% by FACS): 95.2%
[2]; MCX at concentrations less than 2 μM
  definitive endoderm positive cells (CXCR4 positive, CD9 positive): progressively fewer definitive endoderm positive cells
[3]
  effect on cell viability: decreased cell viability
[1]; [9]
  increase in G0/G1 cells: 54%
  reduction in the incorporation of EdU compared to the other four treatment conditions: ~40%
[4]; 24 hours after the initiation of differentiation
  magnitude of induction of FGF4, FOXA2 and SOX17 compared to the other four conditions: much lower
[4]; by 24 hours
  expression of genes for pluripotency (NANOG and POU5F1/OCT4) versus starting cell population or other four conditions: dramatically reduced
[4]; end of definitive endoderm formation
  definitive endoderm by gene expression versus 20 ng/ml WNT-3A plus 100 ng/ml Activin A on day one: comparable
[4]; first 24 hours of differentiation
  induction of genes T (brachyury), GATA4 and CDX2 versus WNT-3A+Activin A or the other three conditions: substantially higher

## O=C([O-])O.[Na+] [Sodium bicarbonate]
[2]; [10]
  CD9 (% by FACS): 12.3%
  CD99 (% by FACS): 66.7%
[2]; 2.43 g/L sodium bicarbonate
  cells expressing CXCR4, on average: 87.4%
[2]; [11]
  CD9 (% by FACS): 5.5%
  CD99 (% by FACS): 92.7%
[2]; 3.64 g/L sodium bicarbonate
  cells expressing CXCR4, on average: 97.35%

B1: WNT-3A: WNT-3A (Catalog #1324-WN-002, R&D Systems) (protein, UniProt P56704 19-352, looked up)
Protein Wnt-3a: SYPIWWSLAVGPQYSSLGSQPILCASIPGLVPKQLRFCRNYVEIMPSVAEGIKIGIQECQHQFRGRRWNCTTVHDSLAIFGPVLDKATRESAFVHAIASAGVAFAVTRSCAEGTAAICGCSSRHQGSPGKGWKWGGCSEDIEFGGMVSREFADARENRPDARSAMNRHNNEAGRQAIASHMHLKCKCHGLSGSCEVKTCWWSQPDFRAIGDFLKDKYDSASEMVVEKHRESRGWVETLRPRYTYFKVPTERDLVYYEASPNFCEPNPETGSFGTRDRTCNVSSHGIDGCDLLCCGRGHNARAERRREKCRCVFHWCCYVSCQECTRVYDVHTCK
[1]
  cells in G0/G1 of the cell cycle: 55.8%
  percentage of cells with EdU incorporation (mean of GDF8, WNT-3A, WNT-3A+Activin A and neat medium): 48.1%
  average decrease in the number of cells in G0/G1 (GDF8, WNT-3A, WNT-3A+Activin A and neat medium): 13%
